# Assay results: patent US5284853A, “Angiotensin II receptor blocking 2,3,6 substituted quinazolinones” (American Cyanamid Company, priority 1993, dated 1994)
# pIC50: −log10 of the molar value. Several values for one entry are separate records, joined by “and”; a condition that tells them apart may be missing. Identical values can stand only once.
# Tests used:
# Angiotensin II Receptor = biological target: T1, Angiotensin II Receptor (Bos taurus, UniProt P25104); assay: Receptor binding assay: competition of [^125 I](Sar^1,Ile^8)AngII binding to beef adrenal cortex microsomal membranes; details: 60 min, room temperature, pH 7.4
# T1 construct: The brownish tissue forming the adrenal cortex is scraped off and finely minced with scissors before homogenization; tissue local slaughter house (Maxwell-Cohen); host or cells: beef adrenal cortex, microsomal membranes (100,000×g pellet)
# T1 sequence (P25104 1-359): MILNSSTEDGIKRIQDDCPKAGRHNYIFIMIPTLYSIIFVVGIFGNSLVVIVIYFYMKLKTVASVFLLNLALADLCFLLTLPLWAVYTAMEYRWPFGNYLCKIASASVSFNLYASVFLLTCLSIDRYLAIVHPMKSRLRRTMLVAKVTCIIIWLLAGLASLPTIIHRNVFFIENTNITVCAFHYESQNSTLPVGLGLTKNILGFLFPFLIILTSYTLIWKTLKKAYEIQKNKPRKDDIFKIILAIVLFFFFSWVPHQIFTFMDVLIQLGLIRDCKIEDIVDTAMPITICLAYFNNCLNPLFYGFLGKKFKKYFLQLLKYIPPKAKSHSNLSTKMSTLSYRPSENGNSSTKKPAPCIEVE
# Text: Beef adrenals are obtained from a local slaughter house (Maxwell-Cohen). [^125 […]. 2200 Ci/mmole, is purchased from Dupont (KEN@, Boston, Mass.). All unlabeled AngII analogs, Dimethylsulfoxide (DMSO), nucleotides, bovine serum albumin (BBA) are purchased from Sigma Chemical Co., St. Louis, MO U.S.A. Approximately sixteen (16) to twenty (20) beef adrenal glands are processed as follows: fresh adrenal glands received on crushed ice are cleaned of fatty tissues and the tough membranes encapsulating the glands are removed and discarded. The brownish tissue forming the adrenal cortex is scraped off and finely minced with scissors before homogenization care is taken to avoid contamination with medullary tissue during dissection. […] Unless otherwise indicated, all subsequent operations are done at […]. […] The homogenate is centrifuged first at low speed (3,000×g) for 10 min. […] This P2 pellet is discarded and the liquid phase is carefully decanted off in clean centrifuge tubes and recentrifuged at high speed (100,000×g) for 60 min. The translucent final pellet is harvested and combined in a small volume (20-50.0 ml) of […] Tris.HCl buffer, pH 7.2. A 100 ul aliquot is withdrawn and the protein content of the preparation is determined by the Lowry's method (Lowry, O. H., Rosebrough, N. P., Parr, A. L. and Randall, R. J., Protein measurement with Folin phenol reagent. J. Biol. Chem., […], 265-275, 1951). The pelleted membrane is reconstituted in 50.0 mM Tris.HCl buffer containing 0.1 mM of phenylmethylsulfonyl fluoride (PMSF) to give approximately a protein concentration of 2.5 mg per ml of tissue suspension. […] In competition studies, experimental compounds are diluted in dimethylsulfoxide (DMSO) and added in 20 ul to wells before the introduction of tissue membranes. This concentration of DMSO is found to have no negative effects on the binding of [^125 I] ([…] to the membranes. Assays are performed in triplicate. The wells are left undisturbed for 60 min. at room temperature. Following incubation, all wells are harvested at once with a Brandel® Harvester especially designed for a 96 well plate (Brandel® Biomedical Research & Development Labs. Inc., Gaithersburg, MD, U.S.A.). The filter discs are washed with 10×1.0 ml of cold 0.9% NaCl to remove unbound ligand. Presoaking the filter sheet in 0.1% polyethyleneimine in normal saline (PEI/Saline) greatly reduces the radioactivity retained by the filter blanks. This method is routinely used. The filters are removed from the filter grid and counted in a Parkard® Cobra Gamma Counter for 1 min. (Packard Instrument Co., Downers Grove, Ill, U.S.A.). The binding data are analyzed by the non-linear interactive "LUNDON-11" program (LUNDON SOFTWARE Inc., Cleveland, OH U.S.A.).
# [1] = tested on: Angiotensin II (AII) vasopressor response; assay: AII Challenge: antagonism of the angiotensin II vasopressor response in conscious SHR; type: in vivo, Spontaneously hypertensive rats (Male okamoto-Aoki SHR); details: 15 mg/kg I.V.; for Average Change / Inhibition: n = 2; for Change / Control Before AII / Response After AII: per rat
# Text: […] Conscious Male okamoto-Aoki SHR, 16-20 weeks old, weighing approximately 330 g are purchased from Charles River Labs (Wilmington, MA). Conscious rats are restrained in a supine position with elastic tape. The area at the base of the tail is locally anesthetized by subcutaneous infiltration with 2% procaine. […] The cannula is secured, heparinized (1,000 I.U./ml), sealed and the wound is closed. The animals are placed in plastic restraining cages in an upright position. The cannula is attached to a Statham P23Db pressure transducer, and pulsatile blood pressure is recorded to 10-15 minutes with a Gould Brush recorder. (Chan et al., (Drug Development Res., 18:75-94, 1989). […] Co., St. […] […] […] […] […] A compound is considered active if at 30 mg/kg i.v. it antagonized at least 50% of the response.
# [2] = AII 0.05 mcg/kg IV, 30 min post dose
# [3] = AII 0.05 mcg/kg IV, 60 min post dose
# [4] = AII 0.05 mcg/kg IV, 90 min post dose
# [5] = AII 0.05 mcg/kg IV, 120 min post dose
# [6] = AII 0.05 mcg/kg IV, 180 min post dose
# [7] = AII 0.1 mcg/kg IV, 30 min post dose
# [8] = AII 0.1 mcg/kg IV, 60 min post dose
# [9] = AII 0.1 mcg/kg IV, 90 min post dose
# [10] = AII 0.1 mcg/kg IV, 120 min post dose
# [11] = AII 0.1 mcg/kg IV, 180 min post dose
structure (smiles),measurement,setting,value
CCCCc1nc2ccc(C3(C)CC(C(=O)OCC)=NO3)cc2c(=O)n1Cc1ccc(-c2ccccc2-c2nnn[nH]2)cc1 (stereo not drawn) [Example 30],pIC50,Angiotensin II Receptor,6.70
same,Average Change,[1]; [2],10 mmhg
same,Inhibition,[1]; [2],78%
same,Change,[1]; [2],15 mmhg and 5 mmhg
same,Control Before AII,[1]; [2],175 mmhg and 215 mmhg
same,Response After AII,[1]; [2],190 mmhg and 220 mmhg
same,Average Change,[1]; [3],9 mmhg
same,Inhibition,[1]; [3],80%
same,Change,[1]; [3],0 mmhg and 18 mmhg
same,Control Before AII,[1]; [3],190 mmhg and 207 mmhg
same,Response After AII,[1]; [3],190 mmhg and 225 mmhg
same,Average Change,[1]; [4],20 mmhg
same,Inhibition,[1]; [4],57%
same,Change,[1]; [4],20 mmhg
same,Control Before AII,[1]; [4],170 mmhg and 210 mmhg
same,Response After AII,[1]; [4],190 mmhg and 230 mmhg
same,Average Change,[1]; [5],35 mmhg
same,Inhibition,[1]; [5],24%
same,Change,[1]; [5],40 mmhg and 30 mmhg
same,Control Before AII,[1]; [5],165 mmhg and 200 mmhg
same,Response After AII,[1]; [5],205 mmhg and 230 mmhg
same,Average Change,[1]; [6],5 mmhg
same,Inhibition,[1]; [6],89%
same,Change,[1]; [6],5 mmhg
same,Control Before AII,[1]; [6],200 mmhg and 240 mmhg
same,Response After AII,[1]; [6],205 mmhg and 245 mmhg
same,Average Change,[1]; [7],17 mmhg
same,Inhibition,[1]; [7],58%
same,Change,[1]; [7],14 mmhg and 20 mmhg
same,Control Before AII,[1]; [7],170 mmhg and 210 mmhg
same,Response After AII,[1]; [7],184 mmhg and 230 mmhg
same,Average Change,[1]; [8],20 mmhg
same,Inhibition,[1]; [8],50%
same,Change,[1]; [8],15 mmhg and 25 mmhg
same,Control Before AII,[1]; [8],185 mmhg and 200 mmhg
same,Response After AII,[1]; [8],200 mmhg and 225 mmhg
same,Average Change,[1]; [9],32.5 mmhg
same,Inhibition,[1]; [9],19%
same,Change,[1]; [9],35 mmhg and 30 mmhg
same,Control Before AII,[1]; [9],165 mmhg and 205 mmhg
same,Response After AII,[1]; [9],200 mmhg and 235 mmhg
same,Average Change,[1]; [10],29 mmhg
same,Inhibition,[1]; [10],28%
same,Change,[1]; [10],25 mmhg and 33 mmhg
same,Control Before AII,[1]; [10],175 mmhg and 200 mmhg
same,Response After AII,[1]; [10],200 mmhg and 233 mmhg
same,Average Change,[1]; [11],15 mmhg
same,Inhibition,[1]; [11],63%
same,Change,[1]; [11],25 mmhg and 5 mmhg
same,Control Before AII,[1]; [11],190 mmhg and 240 mmhg
same,Response After AII,[1]; [11],215 mmhg and 245 mmhg
